In patent US7387997B2 (University of Utah, priority 2004, dated 2008):
Several values for one entry are separate records, joined by “and”; a condition that tells them apart may be missing. Equal entries are not always repeated. Entries after “also recorded” stand apart in the source; their conditions may differ. Where a SMILES comes first, the peptide text is derived from it. Bridges are numbered along the chain shown (N, C = ends).

Experiments:
[1] = biological target: Mouse CNS α-MII Site (putative α6β2* nAChRs); assay type: binding
[2] = biological target: T1, α4β4 nAChR (Rattus norvegicus, UniProt P09483+P12392); experiment: cell-based; assay type: cell-based
T1 construct: expressed in transfected cells; host or cells: Xenopus laevis oocytes, cRNA injected

[3] = biological target: T2, Rat α3β2 nAChR (Rattus norvegicus, UniProt P04757+P12390); experiment: cell-based; assay type: cell-based
T2 construct: expressed in transfected cells; host or cells: Xenopus laevis oocytes, cRNA injected

[4] = biological target: T3, α7 nAChR (Rattus norvegicus, UniProt Q05941); experiment: cell-based; assay type: cell-based
T3 construct: expressed in transfected cells; host or cells: Xenopus laevis oocytes, cRNA injected

[5] = biological target: T4, Rat α6/α3β2β3 nAChR (Rattus norvegicus, UniProt P04757+P12390+P43143); experiment: cell-based; assay type: cell-based
T4 construct: amino acids 1 to 237 of the rat α6 subunit protein; amino acids 233 to 499 of the rat α3 subunit protein; expressed in transfected cells; host or cells: Xenopus laevis oocytes, cRNA injected (pT7TS/rα6α3 for the chimera)

[6] = biological target: T5, α2β2 nAChR (Rattus norvegicus, UniProt P12389+P12390); experiment: cell-based; assay type: cell-based
T5 construct: expressed in transfected cells; host or cells: Xenopus laevis oocytes, cRNA injected

[7] = biological target: T6, α6/α3β2 nAChR (Rattus norvegicus, UniProt P04757+P12390+P43143); experiment: cell-based
T6 construct: amino acids 1 to 237 of the rat α6 subunit protein; amino acids 233 to 499 of the rat α3 subunit protein; expressed in transfected cells; host or cells: Xenopus laevis oocytes, cRNA injected

[8] = biological target: T7, α6/α3β4 nAChR (Rattus norvegicus, UniProt P04757+P12392+P43143); experiment: cell-based
T7 construct: amino acids 1 to 237 of the rat α6 subunit protein; amino acids 233 to 499 of the rat α3 subunit protein; expressed in transfected cells; host or cells: Xenopus laevis oocytes, cRNA injected

[9] = biological target: T8, rat α3β4 nAChR (Rattus norvegicus, UniProt P04757+P12392); experiment: cell-based; assay type: cell-based
T8 construct: expressed in transfected cells; host or cells: Xenopus laevis oocytes, cRNA injected

[10] = biological target: T9, α2β4 nAChR (Rattus norvegicus, UniProt P12389+P12392); experiment: cell-based; assay type: cell-based
T9 construct: expressed in transfected cells; host or cells: Xenopus laevis oocytes, cRNA injected

[11] = biological target: T10, α4β2 nAChR (Rattus norvegicus, UniProt P09483+P12390); assay type: cell-based
T10 construct: expressed in transfected cells; host or cells: Xenopus laevis oocytes, cRNA injected

[12] = biological target: T11, rat α6β4 nAChR (Rattus norvegicus, UniProt P12392+P43143); assay type: cell-based
T11 construct: expressed in transfected cells; host or cells: Xenopus laevis oocytes, cRNA injected (50 ng each)
T11 sequence (P43143 31-493): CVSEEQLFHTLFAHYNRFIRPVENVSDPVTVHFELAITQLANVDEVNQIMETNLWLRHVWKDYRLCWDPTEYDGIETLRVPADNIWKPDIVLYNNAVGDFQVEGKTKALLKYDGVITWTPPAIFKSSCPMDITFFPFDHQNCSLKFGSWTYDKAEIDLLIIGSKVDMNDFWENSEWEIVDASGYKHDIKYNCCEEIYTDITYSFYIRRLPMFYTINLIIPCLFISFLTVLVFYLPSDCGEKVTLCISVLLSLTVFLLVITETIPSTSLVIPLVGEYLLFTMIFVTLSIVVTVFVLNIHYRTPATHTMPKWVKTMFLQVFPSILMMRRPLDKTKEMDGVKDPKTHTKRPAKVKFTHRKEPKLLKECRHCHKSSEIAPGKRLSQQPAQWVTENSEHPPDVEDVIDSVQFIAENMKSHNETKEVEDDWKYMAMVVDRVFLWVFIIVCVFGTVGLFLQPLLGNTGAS
T11 sequence (P12392 21-495): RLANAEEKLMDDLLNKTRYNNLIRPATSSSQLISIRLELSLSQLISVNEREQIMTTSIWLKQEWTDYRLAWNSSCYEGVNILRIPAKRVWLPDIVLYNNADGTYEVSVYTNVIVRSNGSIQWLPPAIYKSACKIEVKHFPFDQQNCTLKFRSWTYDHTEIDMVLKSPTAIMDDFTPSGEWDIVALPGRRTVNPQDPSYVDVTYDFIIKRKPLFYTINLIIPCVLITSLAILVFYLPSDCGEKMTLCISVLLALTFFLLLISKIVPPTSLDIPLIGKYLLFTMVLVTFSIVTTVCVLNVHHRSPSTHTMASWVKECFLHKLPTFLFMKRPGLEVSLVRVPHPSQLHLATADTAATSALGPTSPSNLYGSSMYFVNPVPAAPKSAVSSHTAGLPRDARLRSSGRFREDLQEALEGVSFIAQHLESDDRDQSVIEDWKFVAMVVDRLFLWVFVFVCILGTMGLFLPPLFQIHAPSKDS

T9 sequence (P12389 28-511 limits assumed): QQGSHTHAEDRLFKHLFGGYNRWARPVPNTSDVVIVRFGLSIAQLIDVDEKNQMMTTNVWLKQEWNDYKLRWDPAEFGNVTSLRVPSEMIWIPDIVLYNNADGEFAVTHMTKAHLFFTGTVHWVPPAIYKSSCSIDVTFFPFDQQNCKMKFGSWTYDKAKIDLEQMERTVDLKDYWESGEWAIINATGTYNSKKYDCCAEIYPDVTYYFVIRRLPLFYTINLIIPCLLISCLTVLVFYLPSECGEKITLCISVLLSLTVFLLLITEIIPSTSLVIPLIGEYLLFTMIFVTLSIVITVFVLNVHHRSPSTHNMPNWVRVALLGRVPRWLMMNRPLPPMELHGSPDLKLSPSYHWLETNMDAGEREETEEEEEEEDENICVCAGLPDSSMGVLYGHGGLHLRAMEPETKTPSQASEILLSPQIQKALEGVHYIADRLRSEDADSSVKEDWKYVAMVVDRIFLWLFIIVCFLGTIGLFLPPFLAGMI
T9 sequence (P12392 21-495 limits assumed): as the sequence (P12392 21-495) above
T5 sequence (P12389 28-511 limits assumed): as the sequence (P12389 28-511 limits assumed) above
T5 sequence (P12390 25-500 limits assumed): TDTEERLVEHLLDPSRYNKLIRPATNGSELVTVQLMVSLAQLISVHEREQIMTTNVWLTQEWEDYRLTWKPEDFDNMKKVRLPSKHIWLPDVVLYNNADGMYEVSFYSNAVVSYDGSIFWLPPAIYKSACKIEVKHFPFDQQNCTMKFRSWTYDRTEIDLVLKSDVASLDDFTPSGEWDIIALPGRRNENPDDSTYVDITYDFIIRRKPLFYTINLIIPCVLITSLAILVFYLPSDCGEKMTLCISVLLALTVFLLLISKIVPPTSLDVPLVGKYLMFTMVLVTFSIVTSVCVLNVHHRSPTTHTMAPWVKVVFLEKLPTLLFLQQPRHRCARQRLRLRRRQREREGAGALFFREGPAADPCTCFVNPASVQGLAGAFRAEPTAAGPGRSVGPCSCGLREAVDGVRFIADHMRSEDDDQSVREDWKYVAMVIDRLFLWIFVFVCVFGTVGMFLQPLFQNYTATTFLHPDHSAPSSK
T3 sequence (Q05941 23-502 limits assumed): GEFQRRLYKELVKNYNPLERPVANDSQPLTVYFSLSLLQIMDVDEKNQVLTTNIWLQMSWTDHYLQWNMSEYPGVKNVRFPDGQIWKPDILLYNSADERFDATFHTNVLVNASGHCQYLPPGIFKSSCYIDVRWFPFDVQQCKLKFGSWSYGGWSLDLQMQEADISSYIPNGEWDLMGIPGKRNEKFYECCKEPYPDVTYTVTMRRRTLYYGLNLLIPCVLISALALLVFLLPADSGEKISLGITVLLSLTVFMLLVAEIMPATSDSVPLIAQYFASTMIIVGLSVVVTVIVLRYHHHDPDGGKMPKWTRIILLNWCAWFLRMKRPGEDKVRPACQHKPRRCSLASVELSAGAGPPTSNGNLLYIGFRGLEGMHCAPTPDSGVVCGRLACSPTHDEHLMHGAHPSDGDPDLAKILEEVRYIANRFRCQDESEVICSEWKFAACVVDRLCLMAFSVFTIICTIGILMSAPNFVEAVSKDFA
T1 sequence (P09483 31-630 limits assumed): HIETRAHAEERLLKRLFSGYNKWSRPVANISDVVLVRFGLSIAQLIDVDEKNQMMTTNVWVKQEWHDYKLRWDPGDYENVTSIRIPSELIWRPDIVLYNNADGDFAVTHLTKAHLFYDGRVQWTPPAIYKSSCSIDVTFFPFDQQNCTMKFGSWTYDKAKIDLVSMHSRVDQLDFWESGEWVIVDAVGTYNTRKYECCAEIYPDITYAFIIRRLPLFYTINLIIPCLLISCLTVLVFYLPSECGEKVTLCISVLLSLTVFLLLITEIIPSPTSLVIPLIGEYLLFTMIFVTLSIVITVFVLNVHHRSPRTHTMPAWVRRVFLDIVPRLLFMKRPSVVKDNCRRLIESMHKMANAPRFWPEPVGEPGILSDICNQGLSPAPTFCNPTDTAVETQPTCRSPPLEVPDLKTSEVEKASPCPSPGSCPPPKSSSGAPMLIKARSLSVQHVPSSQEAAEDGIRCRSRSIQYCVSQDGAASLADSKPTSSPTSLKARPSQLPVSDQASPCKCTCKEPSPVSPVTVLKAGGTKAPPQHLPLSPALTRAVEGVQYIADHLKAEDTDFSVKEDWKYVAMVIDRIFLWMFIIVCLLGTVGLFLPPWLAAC
T1 sequence (P12392 21-495 limits assumed): as the sequence (P12392 21-495) above
T10 sequence (P09483 31-630 limits assumed): as the sequence (P09483 31-630 limits assumed) above
T10 sequence (P12390 25-500 limits assumed): as the sequence (P12390 25-500 limits assumed) above
T2 sequence (P04757 26-499 limits assumed): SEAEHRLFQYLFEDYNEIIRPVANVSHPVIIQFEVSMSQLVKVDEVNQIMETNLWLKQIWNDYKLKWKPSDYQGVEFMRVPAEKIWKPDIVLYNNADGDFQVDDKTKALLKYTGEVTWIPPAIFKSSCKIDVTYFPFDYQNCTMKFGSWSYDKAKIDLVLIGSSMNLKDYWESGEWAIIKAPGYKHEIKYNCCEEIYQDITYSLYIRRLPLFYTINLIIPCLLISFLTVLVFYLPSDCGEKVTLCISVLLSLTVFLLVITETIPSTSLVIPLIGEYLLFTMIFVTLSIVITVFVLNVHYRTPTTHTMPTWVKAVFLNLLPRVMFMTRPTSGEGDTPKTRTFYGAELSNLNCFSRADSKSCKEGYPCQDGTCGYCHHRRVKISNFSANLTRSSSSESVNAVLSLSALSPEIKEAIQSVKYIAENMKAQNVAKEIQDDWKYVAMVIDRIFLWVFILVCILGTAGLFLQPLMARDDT
T2 sequence (P12390 25-500 limits assumed): as the sequence (P12390 25-500 limits assumed) above
T8 sequence (P04757 26-499 limits assumed): as the sequence (P04757 26-499 limits assumed) above
T8 sequence (P12392 21-495 limits assumed): as the sequence (P12392 21-495) above
T7 sequence (P43143 31-237 limits assumed): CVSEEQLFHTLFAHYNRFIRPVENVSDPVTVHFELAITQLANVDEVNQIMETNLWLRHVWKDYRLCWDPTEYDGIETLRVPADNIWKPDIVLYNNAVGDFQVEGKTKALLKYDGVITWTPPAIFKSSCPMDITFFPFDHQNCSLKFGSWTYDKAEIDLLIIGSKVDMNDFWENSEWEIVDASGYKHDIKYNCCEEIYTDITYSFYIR
T7 sequence (P04757 233-499 limits assumed): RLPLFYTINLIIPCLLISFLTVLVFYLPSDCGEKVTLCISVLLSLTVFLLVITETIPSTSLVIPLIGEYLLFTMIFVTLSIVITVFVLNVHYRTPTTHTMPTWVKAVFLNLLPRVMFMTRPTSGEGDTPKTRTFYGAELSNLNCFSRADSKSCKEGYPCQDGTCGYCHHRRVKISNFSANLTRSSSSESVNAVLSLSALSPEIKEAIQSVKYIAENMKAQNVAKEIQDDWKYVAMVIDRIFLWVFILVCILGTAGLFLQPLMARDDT
T7 sequence (P12392 21-495): as the sequence (P12392 21-495) above
T6 sequence (P43143 31-237 limits assumed): as the sequence (P43143 31-237 limits assumed) above
T6 sequence (P04757 233-499 limits assumed): as the sequence (P04757 233-499 limits assumed) above
T6 sequence (P12390 25-500 limits assumed): as the sequence (P12390 25-500 limits assumed) above
T4 sequence (P43143 31-237 limits assumed): as the sequence (P43143 31-237 limits assumed) above
T4 sequence (P04757 233-499 limits assumed): as the sequence (P04757 233-499 limits assumed) above
T4 sequence (P12390 25-500 limits assumed): as the sequence (P12390 25-500 limits assumed) above

## CC(C)C[C@@H]1NC(=O)[C@H](Cc2c[nH]cn2)NC(=O)[C@@H]2CSSC[C@H](NC(=O)CN)C(=O)N[C@@H](CSSC[C@@H](C(N)=O)NC(=O)[C@H](CC(C)C)NC(=O)[C@H](CC(N)=O)NC(=O)[C@H](CO)NC(=O)[C@H](Cc3c[nH]cn3)NC(=O)[C@H](C)NC1=O)C(=O)N[C@@H](CO)C(=O)N[C@@H](CC(N)=O)C(=O)N1CCC[C@H]1C(=O)N[C@@H](C(C)C)C(=O)N2 [MII[E11A]] (H-GCCSNPVCHLAHSNLC-NH2; disulfide 2-8, 3-16)
[1]
  Ki: 0.27 nM
[2]
  IC50: > 10000 nM
  Ratio nAChR subtype IC50/α6/α3β2β3 IC50, α4β4: >62,500
[3]
  IC50: 8.72 nM
  Ratio IC50 α3β2/IC50 α6/α3β2β3: 54.5
[4]
  IC50: 1050 nM
  Ratio nAChR subtype IC50/α6/α3β2β3 IC50, α7: 6,570
[5]
  IC50: 0.16 nM
  Ratio nAChR subtype IC50/α6/α3β2β3 IC50, α6/α3β2β3: 1.00
[6]
  IC50: > 10000 nM
  Ratio nAChR subtype IC50/α6/α3β2β3 IC50, α2β2: >62,500
[7]
  IC50: 0.154 nM
  Ratio nAChR subtype IC50/α6/α3β2β3 IC50, α6/α3β2: 0.962
[8]
  IC50: 6.44 nM
  Ratio nAChR subtype IC50/α6/α3β2β3 IC50, α6/α3β4: 40.3
[9]
  IC50: 2100 nM
  Ratio nAChR subtype IC50/α6/α3β2β3 IC50, α3β4: 13,100
[10]
  IC50: > 10000 nM
  Ratio nAChR subtype IC50/α6/α3β2β3 IC50, α2β4: >62,500

## CC(C)C[C@@H]1NC(=O)[C@H](C)NC(=O)[C@@H]2CSSC[C@H](NC(=O)CN)C(=O)N[C@@H](CSSC[C@@H](C(N)=O)NC(=O)[C@H](C)NC(=O)[C@H](CC(N)=O)NC(=O)[C@H](CO)NC(=O)[C@H](Cc3c[nH]cn3)NC(=O)[C@H](CCC(=O)O)NC1=O)C(=O)N[C@@H](CO)C(=O)N[C@@H](CC(N)=O)C(=O)N1CCC[C@H]1C(=O)N[C@@H](C(C)C)C(=O)N2 [MII[H9A; L15A]] (H-GCCSNPVCALEHSNAC-NH2; disulfide 2-8, 3-16)
[11]
  ACh response, percentage of control, Rα4β2: 98.5 ± 4.4 % of control and 101 ± 2.5 % of control
  activity at α4β2 (in words): low or no activity; also recorded: little or no activity
[1]
  Ki: 3.3 nM
[2]
  ACh response, percentage of control, Rα4β4: 99.0 ± 4.0 % of control and 100 ± 5.6 % of control
  activity at α4β4 (in words): low or no activity; also recorded: little or no activity
[3]
  Hill slope, α3β2: 0.48±0.04
[4]
  ACh response, percentage of control, Rα7: 61.4 ± 2.3 % of control and 100 ± 1.5 % of control
  activity at α7 (in words): low or no activity; also recorded: little or no activity
[6]
  ACh response, percentage of control, Rα2β2: 102 ± 1.4 % of control and 103 ± 1.9 % of control
  activity at α2β2 (in words): low or no activity; also recorded: little or no activity
[12]
  Hill slope (nH), α6β4: 0.60±0.09
[9]
  Hill slope (nH), α3β4: 0.75±0.1
  activity at α3β4 (in words): low or no activity; also recorded: little or no activity
[10]
  ACh response, percentage of control, Rα2β4: 96.7 ± 3.2 % of control and 95.9 ± 2.3 % of control
  activity at α2β4 (in words): low or no activity; also recorded: little or no activity
